{"source": "patent US20110311601A1", "about": "“ANTIMICROBIAL MEDICAL DEVICES” (priority 2010, published 2011)", "tested_on": "Escherichia coli strain DB3.1", "test": "agar diffusion assay (zone of inhibition)", "assay_type": "cell-based", "experimental": "Agar diffusion assay. In the agar diffusion assay the microorganisms were exposed immovable to the potential bio-active substance by inclusion in an agar containing medium. The use of a nutrient limited minimal medium led first to a limitation of the development of the bacteria. The test substances were dependent on the application form pipetted into the punched recess in the agar or placed with a test sample into the punched recess in the agar and spread out during incubation time by diffusion into the agar. After incubation the nutrient limitation of the bacteria was revoked. The determination of the bioactivity was performed by measuring the diameter of the raised zone of inhibition surrounding the recess.\nTherefore, Escherichia coli strain DB3.1 (Invitrogen, Cat. No. 11782-018) was used. E. coli was streaked from a glycerol stock onto a Brain Heart Infusion (BHI) agar plate (3.7% (w/v) BHI Bouillon, 1.5% (w/v) Agar) and was grown overnight at 37° C. Subsequently one colony was used to inoculate 8 ml of TSB medium (Caso Bouillon 3% (w/v)) without any antibiotics in a culture tube which was then incubated shaking (120 rpm) over night at 37° C. 50 μl of this pre-culture was used to inoculate again 8 ml of TSB medium (Caso Bouillon 3% (w/v)) without any antibiotics in a fresh culture tube which was then incubated shaking (125 rpm) for 3.5 h at 37° C. The OD600 of the bacterial suspension was then 0.500.\nThe underlay medium (11% (v/v) 0.1 M sodium phosphate buffer pH 7.2, 1% (v/v) TSB-medium, 0.02% (v/v) Tween, 1% (w/v) agarose in distilled water, pH 7.2), a minimal medium, was liquefied using micro waves and cooled to about 47° C. 10 ml underlay medium with 500 μl bacterial suspension were mixed in a 50 ml falcon tube by slight swirling and then was poured into a petri dish. The cooling time was first 15 min at room temperature and then 30 min at 4° C. Afterwards the recesses for test liquids (diameter 3 mm) and test materials (diameter 6 mm), respectively, were punched out from the underlay medium by using a punching-dye. 5 μl test liquid was pipetted per recess and the test materials were laid into the recess or were slid under the underlay medium, respectively. The lid of the plate was closed by parafilm and the plate was incubated over night at 37° C. The next day, the overlay medium (3.4% (w/v) casein peptone, 0.6% (w/v) soy flour peptone, 0.5% (w/v) di-potassium hydrogen phosphate, 1% (w/v) NaCl, 0.5% (w/v) glucose, 1% (w/v) agarose in distilled water) was liquefied using micro waves and cooled to about 47° C. In every Petri dish 10 ml overlay medium were poured on the underlay medium. After cooling for 5 minutes the plate was closed by the lid and incubated at 37° C. for about 2-3 h. For evaluation, the diameter of the raised zones of inhibition surrounding the recesses was measured.\nThe potential of the chosen biopolymers to release bio-active hβD2 after coating/mixing them with hβD2, was determined by a screening in the diffusion assay (as described in Example 5). The assay allows a correlation between the released amounts of bio-active molecules and the resulting zone of inhibition surrounding the releasing source. A comparison with the effect of directly applied, defined amounts of hβD2 allows an evaluation of the release potential of the test materials.\nIn the assay films made of 1% hyaluronic acid and 1% alginic acid, gelatin leaves, gelatinized agarose drops of 1% agarose solution and films of the dried drops were used. Additionally three variants of a polylactide matrix (uncoated, coated with collagen, coated with collagen and chondroitin sulphate) and collagen scaffolds were tested.\nThe samples were prepared as described in example 5 and treated with 10 μg hβD2. For the comparison between the effect of directly applied hβD2 amounts and the effect of hβD2-coated samples a standard series for 0.1, 1, 5 and 10 μg hβD2 was performed. The control was formed by the 0.01% acetic acid. […]", "note": "Where no end group is shown, it is not given here.", "data": [{"substance": "human β-defensin-2 (GIGDPVTCLKSGAICHPVFCPRRYKQIGTCGLPGTKCCKKP; ends and bridges not checked; cysteine pairing not given here) [hβD2, recombinant hβD2]", "values": [{"measurement": "diameter of zone of inhibition", "setting": "0.1 μg hβD2 directly applied", "value": 6, "unit": "mm"}, {"measurement": "diameter of zone of inhibition", "setting": "1 μg hβD2 directly applied", "value": 9, "unit": "mm"}, {"measurement": "diameter of zone of inhibition", "setting": "5 μg hβD2 directly applied", "value": 12, "unit": "mm"}, {"measurement": "diameter of zone of inhibition", "setting": "10 μg hβD2 directly applied", "value": 15, "unit": "mm"}, {"measurement": "formation of a zone of inhibition", "setting": "10 μg hβD2 on alginic acid film", "value": "did not exhibit the formation of a zone of inhibition"}, {"measurement": "formation of a zone of inhibition", "setting": "10 μg hβD2 on hyaluronic acid film", "value": "did not exhibit the formation of a zone of inhibition"}]}]}
